Experimental findings from US20260297109A1, “COMPOUNDS AS SUMO ACTIVATING ENZYME INHIBITORS” (WIGEN BIOMEDICINE TECHNOLOGY (SHANGHAI) CO., LTD., priority 2022, published 2026) are described below.

For the experiment, the target named is T1, SAE (Homo sapiens, UniProt Q9UBT2).
T1 construct: endogenous in cells; host or cells: HCT116
T1 sequence (Q9UBT2 1-640): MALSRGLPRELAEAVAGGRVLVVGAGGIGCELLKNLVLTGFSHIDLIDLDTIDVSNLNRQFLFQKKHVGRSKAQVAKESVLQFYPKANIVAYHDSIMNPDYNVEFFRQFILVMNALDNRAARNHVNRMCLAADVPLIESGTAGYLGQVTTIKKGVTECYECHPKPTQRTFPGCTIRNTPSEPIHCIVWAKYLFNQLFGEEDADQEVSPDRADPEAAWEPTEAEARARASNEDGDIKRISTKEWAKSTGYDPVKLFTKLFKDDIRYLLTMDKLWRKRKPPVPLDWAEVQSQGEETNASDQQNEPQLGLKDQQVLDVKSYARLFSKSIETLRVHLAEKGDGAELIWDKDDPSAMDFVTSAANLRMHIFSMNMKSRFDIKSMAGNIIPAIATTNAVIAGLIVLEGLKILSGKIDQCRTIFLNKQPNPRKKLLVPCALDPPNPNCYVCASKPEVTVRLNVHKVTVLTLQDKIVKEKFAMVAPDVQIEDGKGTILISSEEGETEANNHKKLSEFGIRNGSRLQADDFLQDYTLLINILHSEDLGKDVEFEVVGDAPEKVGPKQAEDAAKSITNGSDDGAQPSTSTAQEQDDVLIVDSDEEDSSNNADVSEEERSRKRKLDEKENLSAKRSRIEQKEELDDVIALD
T1 sequence (Q9UBE0 1-346): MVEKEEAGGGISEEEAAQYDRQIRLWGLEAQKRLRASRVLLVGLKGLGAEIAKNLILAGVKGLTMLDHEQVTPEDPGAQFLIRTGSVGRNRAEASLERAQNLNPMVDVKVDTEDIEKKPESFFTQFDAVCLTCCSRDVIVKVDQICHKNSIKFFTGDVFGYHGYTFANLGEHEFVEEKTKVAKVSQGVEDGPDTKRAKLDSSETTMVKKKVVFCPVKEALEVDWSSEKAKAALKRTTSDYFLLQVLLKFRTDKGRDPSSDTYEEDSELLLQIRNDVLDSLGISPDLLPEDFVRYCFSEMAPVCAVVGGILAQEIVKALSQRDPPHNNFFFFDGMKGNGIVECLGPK
The experiment is described as follows: SUMO IF: in vitro inhibitory activity assay against SAE in HCT116 cells (SUMO-2/3 immunofluorescence). As to conditions: 6 h at 37° C. Format: cell-based. A digest of the protocol: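 HCT116 cells were treated with compound for 6 h at 37 °C, then PFA-fixed, Triton-permeabilised and BSA-blocked. They were stained overnight at 4 °C with anti-SUMO-2/3 (18H8) rabbit mAb (1:400), then with FITC anti-rabbit IgG (1:300). Fluorescence versus DMSO gave inhibition rate and IC50.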

Regarding `Nc1sc(C(=O)c2cncnc2N[C@H]2C[C@H](O)[C@@H](COS(N)(=O)=O)[C@@H]2F)cc1C1NCCc2ccc(Cl)cc21` (stereo partly drawn) [Compound 264], the IC50 (usually the concentration at which inhibition is half-maximal) (class symbols) was in the range of 50 to 200 nM.
Same read-out and setting: the figure for `Cc1sc(C(=O)c2cncnc2N[C@H]2C[C@H](O)[C@@H](COS(N)(=O)=O)[C@@H]2F)cc1C1NCC2(CC2)c2ccc(Cl)cc21` (stereo partly drawn) [Compound 265] is 50 to 200 nM.
Same read-out and setting: the figure for `Cc1sc(C(=O)c2cncnc2N[C@H]2C[C@H](O)[C@@H](COS(N)(=O)=O)[C@@H]2F)cc1C1NC2(CC2)Cc2ccc(Cl)cc21` (stereo partly drawn) [Compound 266] is 50 to 200 nM.
Still for that read-out and setting: the figure for `Cc1sc(C(=O)c2cncnc2N[C@H]2C[C@H](O)[C@@H](COS(N)(=O)=O)[C@@H]2F)cc1C1NC=Cc2ccc(Cl)cc21` (stereo partly drawn) [Compound 267] is 50 to 200 nM.
`NS(=O)(=O)OC[C@H]1[C@H](F)[C@@H](Nc2ncncc2C(=O)c2cc(C3NCCc4ccc(Cl)cc43)c(C(F)(F)F)s2)C[C@@H]1O` (stereo partly drawn) [Compound 268] showed an IC50 (class symbols) of 50 to 200 nM.
Same read-out and setting: the figure for `[2H]C1(c2cc(C(=O)c3cncnc3N[C@H]3C[C@H](O)[C@@H](COS(N)(=O)=O)[C@@H]3F)sc2C)NCCc2ccc(Cl)cc21` (stereo partly drawn) [Compound 269] is 50 to 200 nM; for `Cc1sc(C(=O)c2cncnc2N[C@H]2C[C@H](O)[C@@H](COS(N)(=O)=O)[C@@H]2F)cc1C1(C)NCCc2ccc(Cl)cc21` (stereo partly drawn) [Compound 270] it is 50 to 200 nM.
The molecule `NS(=O)(=O)OC[C@H]1[C@H](F)[C@@H](Nc2ncncc2C(=O)c2cc3c(s2)CSCC32NCCc3ccccc32)C[C@@H]1O` (stereo partly drawn) [Compound 294] registered an IC50 (class symbols) of over 200 nM.
Molecule `NS(=O)(=O)OC[C@H]1[C@H](F)[C@@H](Nc2ncncc2C(=O)c2cc3c(s2)CSC[C@@]32NCCc3ccccc32)C[C@@H]1O` [Compound 295] showed a 50% inhibitory concentration (IC50) (class symbols) of over 200 nM.
The same measure, in the same setting: the figure for `NS(=O)(=O)OC[C@H]1[C@H](F)[C@@H](Nc2ncncc2C(=O)c2cc3c(s2)CSC[C@]32NCCc3ccccc32)C[C@@H]1O` [Compound 296] is 50 to 200 nM.
The same measure, in the same setting: the figure for `NS(=O)(=O)OC[C@H]1[C@H](F)[C@@H](Nc2ncncc2C(=O)c2cc3c(s2)CSCC32NCCc3ccc(F)cc32)C[C@@H]1O` (stereo partly drawn) [Compound 297] is at most 50 nM; for `NS(=O)(=O)OC[C@H]1[C@H](F)[C@@H](Nc2ncncc2C(=O)c2cc3c(s2)CSC[C@@]32NCCc3ccc(F)cc32)C[C@@H]1O` [Compound 298] it is over 200 nM; for `NS(=O)(=O)OC[C@H]1[C@H](F)[C@@H](Nc2ncncc2C(=O)c2cc3c(s2)CSC[C@]32NCCc3ccc(F)cc32)C[C@@H]1O` [Compound 299] it is at most 50 nM.
Still for that read-out and setting: the figure for `NS(=O)(=O)OC[C@H]1[C@H](F)[C@@H](Nc2ncncc2C(=O)c2cc3c(s2)CSCC32NCCc3ccc(Cl)cc32)C[C@@H]1O` (stereo partly drawn) [Compound 300] is at most 50 nM.
For the setting “numeric values”, `NS(=O)(=O)OC[C@H]1[C@H](F)[C@@H](Nc2ncncc2C(=O)c2cc3c(s2)CSC[C@@]32NCCc3ccc(Cl)cc32)C[C@@H]1O` [Compound 301] came in with a half-maximal inhibitory concentration (IC50) of over 1000 nM.
As to `NS(=O)(=O)OC[C@H]1[C@H](F)[C@@H](Nc2ncncc2C(=O)c2cc3c(s2)CSC[C@]32NCCc3ccc(Cl)cc32)C[C@@H]1O` [Compound 302], inhibition (numeric values) was half-maximal at 21.5 nM (IC50).
In turn, `NS(=O)(=O)OC[C@H]1[C@H](F)[C@@H](Nc2ncncc2C(=O)c2cc3c(s2)C(F)=CC32NCCc3ccc(Cl)cc32)C[C@@H]1O` (stereo partly drawn) [Compound 321] had an IC50 (class symbols) of at most 50 nM.
The same measure, in the same setting: the figure for `NS(=O)(=O)OC[C@H]1[C@H](F)[C@@H](Nc2ncncc2C(=O)c2cc3c(s2)C(F)=C[C@@]32NCCc3ccc(Cl)cc32)C[C@@H]1O` [Compound 322] is over 200 nM.
On the same count and under the same terms, the figure for `NS(=O)(=O)OC[C@H]1[C@H](F)[C@@H](Nc2ncncc2C(=O)c2cc3c(s2)C(F)=C[C@]32NCCc3ccc(Cl)cc32)C[C@@H]1O` [Compound 323] is at most 50 nM; for `CC1=CC2(NCCc3ccc(Cl)cc32)c2cc(C(=O)c3cncnc3N[C@H]3C[C@H](O)[C@@H](COS(N)(=O)=O)[C@@H]3F)sc21` (stereo partly drawn) [Compound 324] it is 50 to 200 nM; for `CC1=C[C@@]2(NCCc3ccc(Cl)cc32)c2cc(C(=O)c3cncnc3N[C@H]3C[C@H](O)[C@@H](COS(N)(=O)=O)[C@@H]3F)sc21` [Compound 325] it is over 200 nM.
On the same count and under the same terms, the figure for `CC1=C[C@]2(NCCc3ccc(Cl)cc32)c2cc(C(=O)c3cncnc3N[C@H]3C[C@H](O)[C@@H](COS(N)(=O)=O)[C@@H]3F)sc21` [Compound 326] is at most 50 nM.
On to `NS(=O)(=O)OC[C@H]1[C@H](F)[C@@H](Nc2ncncc2C(=O)c2cc3c(s2)C(F)(F)CC32NCCc3ccc(Cl)cc32)C[C@@H]1O` (stereo partly drawn) [Compound 327], for which the IC50 (class symbols) was in the range of 50 to 200 nM.
The same measure, in the same setting: the figure for `NS(=O)(=O)OC[C@H]1[C@H](F)[C@@H](Nc2ncncc2C(=O)c2cc3c(s2)C(F)(F)C[C@@]32NCCc3ccc(Cl)cc32)C[C@@H]1O` [Compound 328] is over 200 nM; for `NS(=O)(=O)OC[C@H]1[C@H](F)[C@@H](Nc2ncncc2C(=O)c2cc3c(s2)C(F)(F)C[C@]32NCCc3ccc(Cl)cc32)C[C@@H]1O` [Compound 329] it is 50 to 200 nM.
Molecule `NS(=O)(=O)OC[C@H]1[C@H](F)[C@@H](Nc2ncncc2C(=O)c2cc3c(s2)C=C[C@@]32NCCc3ccc(Cl)cc32)C[C@@H]1O` [Compound 343] yielded an IC50 (numeric values) of over 1000 nM.
The molecule `NS(=O)(=O)OC[C@H]1[C@H](F)[C@@H](Nc2ncncc2C(=O)c2cc3c(s2)C=C[C@@]32NCCc3ccc(F)cc32)C[C@@H]1O` [Compound 345] gave an IC50 (class symbols) of over 200 nM.
On the same count and under the same terms, the figure for `NS(=O)(=O)OC[C@H]1[C@H](F)[C@@H](Nc2ncncc2C(=O)c2cc3c(s2)C=C[C@]32NCCc3ccc(F)cc32)C[C@@H]1O` [Compound 346] is at most 50 nM; for `NS(=O)(=O)OC[C@H]1[C@H](F)[C@@H](Nc2ncncc2C(=O)c2cc3c(s2)COCC32NCCc3ccc(Cl)c(Cl)c32)C[C@@H]1O` (stereo partly drawn) [Compound 558] it is 50 to 200 nM; for `NS(=O)(=O)OC[C@H]1[C@H](F)[C@@H](Nc2ncncc2C(=O)c2cc3c(s2)COC[C@@]32NCCc3ccc(Cl)c(Cl)c32)C[C@@H]1O` [Compound 559] it is over 200 nM.
For the molecule `NS(=O)(=O)OC[C@H]1[C@H](F)[C@@H](Nc2ncncc2C(=O)c2cc3c(s2)COC[C@]32NCCc3ccc(Cl)c(Cl)c32)C[C@@H]1O` [Compound 560], the IC50 (class symbols) lay within 50 to 200 nM.
For the setting “class symbols”, `NS(=O)(=O)OC[C@H]1[C@H](F)[C@@H](Nc2ncncc2C(=O)c2cc3c(s2)COCC32NCCc3cc(Cl)c(Cl)cc32)C[C@@H]1O` (stereo partly drawn) [Compound 561] showed an IC50 of 50 to 200 nM.
On the same count and under the same terms, the figure for `NS(=O)(=O)OC[C@H]1[C@H](F)[C@@H](Nc2ncncc2C(=O)c2cc3c(s2)COC[C@@]32NCCc3cc(Cl)c(Cl)cc32)C[C@@H]1O` [Compound 562] is over 200 nM.
Same read-out and setting: the figure for `NS(=O)(=O)OC[C@H]1[C@H](F)[C@@H](Nc2ncncc2C(=O)c2cc3c(s2)COC[C@]32NCCc3cc(Cl)c(Cl)cc32)C[C@@H]1O` [Compound 563] is 50 to 200 nM; for `NS(=O)(=O)OC[C@H]1[C@H](F)[C@@H](Nc2ncncc2C(=O)c2cc3c(s2)COCC32NCCc3c(Cl)cc(Cl)cc32)C[C@@H]1O` (stereo partly drawn) [Compound 564] it is 50 to 200 nM.
Still for that read-out and setting: the figure for `NS(=O)(=O)OC[C@H]1[C@H](F)[C@@H](Nc2ncncc2C(=O)c2cc3c(s2)COC[C@@]32NCCc3c(Cl)cc(Cl)cc32)C[C@@H]1O` [Compound 565] is over 200 nM; for `NS(=O)(=O)OC[C@H]1[C@H](F)[C@@H](Nc2ncncc2C(=O)c2cc3c(s2)COC[C@]32NCCc3c(Cl)cc(Cl)cc32)C[C@@H]1O` [Compound 566] it is 50 to 200 nM; for `NS(=O)(=O)OC[C@H]1[C@H](F)[C@@H](Nc2ncncc2C(=O)c2cc3c(s2)COCC32NCCc3ccc(Cl)c(F)c32)C[C@@H]1O` (stereo partly drawn) [Compound 567] it is 50 to 200 nM.
In the case of `NS(=O)(=O)OC[C@H]1[C@H](F)[C@@H](Nc2ncncc2C(=O)c2cc3c(s2)COC[C@@]32NCCc3ccc(Cl)c(F)c32)C[C@@H]1O` [Compound 568], under “class symbols”, the IC50 is over 200 nM.
Still for that read-out and setting: the figure for `NS(=O)(=O)OC[C@H]1[C@H](F)[C@@H](Nc2ncncc2C(=O)c2cc3c(s2)COC[C@]32NCCc3ccc(Cl)c(F)c32)C[C@@H]1O` [Compound 569] is 50 to 200 nM; for `NS(=O)(=O)OC[C@H]1[C@H](F)[C@@H](Nc2ncncc2C(=O)c2cc3c(s2)COCC32NCCc3cc(F)c(Cl)cc32)C[C@@H]1O` (stereo partly drawn) [Compound 570] it is 50 to 200 nM; for `NS(=O)(=O)OC[C@H]1[C@H](F)[C@@H](Nc2ncncc2C(=O)c2cc3c(s2)COC[C@@]32NCCc3cc(F)c(Cl)cc32)C[C@@H]1O` [Compound 571] it is over 200 nM.
